According to patent US20050085539A1, “Method of reducing toxicity of retinoids” (priority 2003, published 2005):

Columns and labels:
Assay type in all cases: in vivo, rat
vitamin A-deficient rats [1] = assay: Growth of vitamin A-deficient rats given the compounds orally in Wesson oil; settings: daily oral dose (25 μg/day)
vitamin A-deficient rats [2] = assay: as above; settings: for growth (weight change) of vitamin A-deficient rats: 83 pmoles/day oral in Wesson oil; for growth (weight change) of vitamin A-deficient rats / growth response of vitamin A-deficient rats: 5-day period; for activity relative to atRA in supporting growth of vitamin A-deficient rats: estimate from FIG. 4, 83 pmole/day, 5 days; for growth response of vitamin A-deficient rats: 166 pmoles/day oral in Wesson oil
Description: The first test was to determine if the esterified compounds when given orally could restore normal growth of vitamin A-deficient rats. For this study, Sprague-Dawley, weanling rats were obtained from Harlan (Indianapolis, Ind.). They were fed the purified vitamin A-deficient diet previously described (Suda et al., 1970, J. Nutr. 100:1049-1052) supplemented with vitamins D, E and K (White et al., 1998, Proc. Natl. Acad. Sci. USA 95:13459-13464). When the animals stopped growing and began to lose weight, they were administered the indicated doses per day dissolved in Wesson oil. Controls were given the Wesson oil alone (vehicle group). The weight change over the 5-day study period was analyzed by ANOVA, followed by a matrix of pairwise comparison probabilities using four post-hoc tests when the overall P value was less then 0.05. The post-hoc comparison tests included: Turkey HSD multiple comparisons, Sheffe test, Fisher's least-significant-difference test and the Bonferroni adjustment test.
Weanling male rats were obtained from the Harlan Company and were housed individually in hanging wire cages and fed the vitamin A-deficient diet described previously (Suda et al., 1970, J. Nutr. 100:1049-1052). At approximately 70 days of age, the animals began to show a leveling off of growth and began to show weight loss. At this time, they were used for the following studies: They were given either 0.1 ml of Wesson oil (vehicle) or the indicated dose of atRA dissolved in the vehicle or one of the derivatives at the indicated dose dissolved in the vehicle. Body weights were recorded daily and plotted as cumulative weight gain or loss over the study period as indicated on the graphs. A daily dose of 83 pmoles (25 μg/day) of atRA is near the minimum amount needed to produce normal growth in […] rats as compared to the vehicle controls that continue to lose weight (FIG. 1). […] When the dose was increased to 50 μg/day of atRA or 59.5 μg/day of the t-butyl derivative, as expected, the growth response was identical.

normal male rats = assay: Acute toxicity of atRA versus t-butyl-RA in normal male rats
Procedure: Two independent toxicity studies were carried out with the t-butyl-RA derivative. […] However, the difference in testes weights between the atRA and t-butyl-RA groups was not statistically significant due to rather large biological variability.
We next examined the actute toxicity of the t-butyl derivative as compared to the atRA derivative in two independent trails. In these experiments, normal male rats weighing approximately 250-300 grams were used. They were individually housed in cages and given Purina lab chow as well as water ad libitum. […] This is an extremely large dose, and represents at least 3,600 times the amount of the t-butyl derivative needed to support a physiological growth response in vitamin A-deficient rats. […] Another indication of toxicity is testes weight as illustrated in FIG. 7.

[3] = 1 mmole/kg/day for 5 days, second study (FIG. 6)

Row | Compound | daily dose near the minimum amount needed to produce normal growth (vitamin A-deficient rats [1]) | growth (weight change) of vitamin A-deficient rats (vitamin A-deficient rats [2]) | activity relative to atRA in supporting growth of vitamin A-deficient rats (vitamin A-deficient rats [2]) | apparent toxicity / outward symptoms (normal male rats; [3]) | body weight change (normal male rats; [3]) | body weight change (normal male rats; 1 mmole/kg/day, 7 days, first study (FIG. 5)) | growth response of vitamin A-deficient rats (vitamin A-deficient rats [2]) | growth response of vitamin A-deficient rats (vitamin A-deficient rats [2]; listed as t-butyl derivative)
1 | CC1=C(/C=C/C(C)=C/C=C/C(C)=C/C(=O)O)C(C)(C)CCC1 [atRA, all-trans-retinoic acid, reference compound] | ~83 nmol | superior to that of the cholesterol ester-fed group | – | – | – | – | – | –
2 | CC1=C(/C=C/C(C)=C/C=C/C(C)=C/C(=O)O[C@H]2CC[C@@]3(C)C(=CCC4C3CC[C@@]3(C)C4CC[C@@H]3[C@H](C)CCCC(C)C)C2)C(C)(C)CCC1 (stereo partly drawn) [cholesterol ester, all-trans-retinoic acid cholesterol ester] | – | significantly enhanced growth compared to vehicle control animals | one-third | – | – | – | – | –
3 | CC1=C(/C=C/C(C)=C/C=C/C(C)=C/C(=O)OC(C)(C)C)C(C)(C)CCC1 [t-butyl-RA, all-trans-retinoic acid tert-butyl ester] | – | did not differ significantly from that of the group fed an equal molar amount of atRA | equal to atRA in potency and efficacy | no apparent toxicity | equal body weight accumulation | enabled continued growth | equivalent | identical
